We go through 13 compounds from patent US20230312550A1, “N-(2-(4-CYANOTHIAZOLIDIN-3-YL)-2-OXOETHYL)-QUINOLINE-4-CARBOXAMIDES” (AstraZeneca AB, priority 2020, published 2023).

Each structure is given as a SMILES string. Values after ≈ are worked out from the molar mass of the structure shown.

A short description of series [1]: Metabolic stability in human liver microsomes (HLM). The following applies: human.
Procedure: Metabolic stability in HLM was measured as described in J Comput Aided Mol Des 2015, 29, 795.
In series [2] the target is Prolyl endopeptidase, Prolyl Oligopeptidase (hPREP) (Homo sapiens (Human), UniProt P48147). As to the kind of experiment: hPrep inhibition assay. It is filed as biochemical. The conditions noted are these: hPREP 0.6 nM, Z-Gly-Pro-amino-methylcoumarin 50 μM; read-out: PREP IC50. As for the experimental part:
Compounds were tested in a biochemical inhibition assay using Prolyl endopeptidase, Prolyl Oligopeptidase (hPREP) enzyme at 0.6 nM FAC (R&D Systems, 4308-SE) and the substrate Z-Gly-Pro-amino-methylcoumarin (Bachem, I-1145) at 50 μM FAC. 384 Low volume black plates (Greiner #784076) were used. […] Plates were incubated for 15 min at rt in dark. 4 μL, 100 μM substrate solution (25 mM Tris HCl, 250 mM NaCl, 0.01% Triton X-100, 5 mM Glutathione, pH 7.5) was added to each well. Plates were centrifuged at 1000 rpm and incubated for 20 min at rt in dark. The plates were read on a PHERAstar® reader with excitation 340 nm and emission 460 nm. Data were analyzed in Genedata Screener®. IC50 values were determined by plotting % inhibition versus log compound concentration and using a one site dose response model.

In series [3] the target is hFAP (M39-A757) (Homo sapiens (Human), UniProt Q12884). Kind of series: hFAP binding assay (surface plasmon resonance). The conditions noted are these: SPR, 20° C.; for hFAP Binding assay k(off) / hFAP Binding assay k(on): single cycle kinetics; for Kd: n = 1 or geometric mean n = 2-4. For orientation: SPR reads the build-up and loss of mass on a sensor chip optically.
The target in series [4] is human Fibroblast activation protein alpha (hFAP) (Homo sapiens (Human), UniProt Q12884). Kind of series: hFAP inhibition assay (tight binders). Also: hFAP 2.4 pM. It is filed as biochemical. The conditions noted are these: Ala-Pro-AMC 20 μM, n = 1 or geometric mean n = 2-6. The method, then: The plates were read on a PHERAstar® reader with excitation 340 nm and emission 460 nm. Data were analyzed in Genedata Screener®. IC50 values were determined by plotting % inhibition versus log compound concentration and using a one site dose response model.

Series [5] in a line: Kinetic solubility. The following applies: kinetic from dmso stock.
Procedure: Kinetic solubility was measured as described in Comput Aided Mol Des 2015, 29, 795.
Series [6] in a line: Metabolic stability in rat hepatocytes (rHep). The following applies: n = 1 or geometric mean of n = 2-3.
Where [7] appears, read: HLM CLint, n = 1 or average of n = 2-3.
Where [8] appears, read: Solubility, kinetic solubility, n = 1 or average of n = 2-3.

human Fibroblast activation protein alpha (hFAP), sequence (Q12884 38-760): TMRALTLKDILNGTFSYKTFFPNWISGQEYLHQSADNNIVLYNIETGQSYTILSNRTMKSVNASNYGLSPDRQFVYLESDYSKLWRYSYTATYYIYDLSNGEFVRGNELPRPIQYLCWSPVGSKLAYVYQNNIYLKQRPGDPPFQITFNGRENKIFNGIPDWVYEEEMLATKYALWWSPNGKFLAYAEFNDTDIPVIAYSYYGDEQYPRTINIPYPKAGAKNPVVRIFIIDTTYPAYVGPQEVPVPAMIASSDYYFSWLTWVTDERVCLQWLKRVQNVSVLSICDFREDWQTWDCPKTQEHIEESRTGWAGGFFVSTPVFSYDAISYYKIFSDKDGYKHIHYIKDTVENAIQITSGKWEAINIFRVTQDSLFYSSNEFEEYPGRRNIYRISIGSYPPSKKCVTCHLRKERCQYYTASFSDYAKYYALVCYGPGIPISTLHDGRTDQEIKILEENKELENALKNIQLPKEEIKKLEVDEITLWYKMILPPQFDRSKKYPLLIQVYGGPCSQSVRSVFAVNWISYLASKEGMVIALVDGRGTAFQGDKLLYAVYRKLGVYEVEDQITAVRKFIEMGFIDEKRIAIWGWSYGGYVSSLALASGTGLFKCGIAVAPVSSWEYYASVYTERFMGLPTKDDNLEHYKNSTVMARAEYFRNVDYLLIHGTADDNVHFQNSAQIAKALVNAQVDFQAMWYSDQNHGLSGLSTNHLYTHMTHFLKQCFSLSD
hFAP (M39-A757), sequence (Q12884 39-757): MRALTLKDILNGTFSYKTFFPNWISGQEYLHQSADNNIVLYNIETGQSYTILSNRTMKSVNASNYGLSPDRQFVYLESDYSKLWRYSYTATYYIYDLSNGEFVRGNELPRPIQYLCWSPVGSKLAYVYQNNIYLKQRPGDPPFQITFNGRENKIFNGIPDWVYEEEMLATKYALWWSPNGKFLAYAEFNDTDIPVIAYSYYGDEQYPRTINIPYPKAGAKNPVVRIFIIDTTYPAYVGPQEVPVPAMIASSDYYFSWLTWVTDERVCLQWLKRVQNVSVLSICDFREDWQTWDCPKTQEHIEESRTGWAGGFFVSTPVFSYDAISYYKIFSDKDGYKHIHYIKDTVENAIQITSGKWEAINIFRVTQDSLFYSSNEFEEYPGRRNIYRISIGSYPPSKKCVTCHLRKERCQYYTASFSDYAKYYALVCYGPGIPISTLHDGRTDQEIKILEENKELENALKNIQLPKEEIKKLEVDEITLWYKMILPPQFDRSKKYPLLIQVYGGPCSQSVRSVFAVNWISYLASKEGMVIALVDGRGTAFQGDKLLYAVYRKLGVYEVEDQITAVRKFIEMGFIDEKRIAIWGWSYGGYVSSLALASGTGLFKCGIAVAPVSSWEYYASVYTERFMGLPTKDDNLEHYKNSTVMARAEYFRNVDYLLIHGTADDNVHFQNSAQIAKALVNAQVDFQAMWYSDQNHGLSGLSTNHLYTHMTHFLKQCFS
Prolyl endopeptidase, Prolyl Oligopeptidase (hPREP), sequence (P48147 whole entry): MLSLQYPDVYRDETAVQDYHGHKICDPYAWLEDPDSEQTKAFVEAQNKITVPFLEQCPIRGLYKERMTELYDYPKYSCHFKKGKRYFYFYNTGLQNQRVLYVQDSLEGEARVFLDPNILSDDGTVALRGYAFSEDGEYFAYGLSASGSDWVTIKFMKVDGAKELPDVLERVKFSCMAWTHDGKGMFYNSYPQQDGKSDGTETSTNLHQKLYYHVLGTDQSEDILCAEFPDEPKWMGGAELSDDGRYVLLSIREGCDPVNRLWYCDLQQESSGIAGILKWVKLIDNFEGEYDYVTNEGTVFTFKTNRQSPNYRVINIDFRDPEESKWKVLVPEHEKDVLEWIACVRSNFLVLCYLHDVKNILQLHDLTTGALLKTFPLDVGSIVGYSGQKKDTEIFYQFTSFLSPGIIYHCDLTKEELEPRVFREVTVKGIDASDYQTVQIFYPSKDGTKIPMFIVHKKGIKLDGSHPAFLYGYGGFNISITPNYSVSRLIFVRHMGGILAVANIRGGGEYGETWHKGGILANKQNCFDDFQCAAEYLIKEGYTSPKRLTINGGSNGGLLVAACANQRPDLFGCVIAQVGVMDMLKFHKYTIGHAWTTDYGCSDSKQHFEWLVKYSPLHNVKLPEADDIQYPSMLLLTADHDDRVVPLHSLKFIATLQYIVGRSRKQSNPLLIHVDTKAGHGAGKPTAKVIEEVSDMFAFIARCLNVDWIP

For `CC1(CC(F)F)CN(c2ccc3nccc(C(=O)NCC(=O)N4CSC[C@H]4C#N)c3c2)C1` [Example 133, (R)—N-(2-(4-Cyanothiazolidin-3-yl)-2-oxoethyl)-6-(3-(2,2-difluoroethyl)-3-methylazetidin-1-yl)quinoline-4-carboxamide], in series [1] (setting [7]), the microsomal CLint was 40 µL/min/mg. Besides, in series [2], the IC50 amounted to 370 nM. For the same compound, in series [3], the “hFAP Binding assay k(off)” value is 0.000073 s⁻¹, the “hFAP Binding assay k(on)” value is 1200000 M⁻¹ s⁻¹ and the Kd was 0.066 nM. The midpoint of inhibition in series [4], the IC50, lay at 0.1 nM. In series [5] (setting [8]), this compound returned a solubility of under 380 µM. For the same compound, the “rHep CLint” value in series [6] stood at 8.8 μL/min/1E6.
For `CC(C)OC1CCN(c2ccc3nccc(C(=O)NCC(=O)N4CSC[C@H]4C#N)c3c2)CC1` [Example 43, (R)—N-(2-(4-Cyanothiazolidin-3-yl)-2-oxoethyl)-6-(4-isopropoxypiperidin-1-yl)quinoline-4-carboxamide], the microsomal CLint in series [1] (setting [7]) was determined as 36 µL/min/mg. Further, the half-inhibitory concentration (IC50) in series [2] is 1000 nM. For the same compound, in series [3], the “hFAP Binding assay k(off)” value stood at 0.000019 s⁻¹, the “hFAP Binding assay k(on)” value amounted to 3200000 M⁻¹ s⁻¹ and the Kd was found to be 0.0061 nM. The compound further returned an IC50 in series [4] of 0.045 nM. The same compound returned a solubility in series [5] (setting [8]) of 52 µM (≈ 24.3 µg/mL). Also, the “rHep CLint” value in series [6] was found to be 9.1 μL/min/1E6.
In the case of `CO[C@@H]1CCN(c2ccc3nccc(C(=O)NCC(=O)N4CSC[C@H]4C#N)c3c2)C1` [Example 161, N-(2-((R)-4-Cyanothiazolidin-3-yl)-2-oxoethyl)-6-((R)-3-methoxy-pyrrolidin-1-yl)quinoline-4-carboxamide], the microsomal CLint in series [1] (setting [7]) is 6.7 µL/min/mg. For the same compound, the IC50 in series [2] came to 470 nM. In addition, in series [3], the “hFAP Binding assay k(off)” value came to 0.00028 s⁻¹, the “hFAP Binding assay k(on)” value stood at 14000000 M⁻¹ s⁻¹ and the Kd came to 0.022 nM. The compound further showed an IC50 in series [4] of 0.052 nM. Besides, the concentration in solution in series [5] (setting [8]) (solubility) came to 84 µM (≈ 35.7 µg/mL). The “rHep CLint” value in series [6] was found to be 8.5 μL/min/1E6.
As for `C[C@@H]1CN(c2ccc3nccc(C(=O)NCC(=O)N4CSC[C@H]4C#N)c3c2)C[C@H](C)[C@]1(C)O` [Example 193, N-(2-((R)-4-Cyanothiazolidin-3-yl)-2-oxoethyl)-6-((3R,4S,5S)-4-hydroxy-3,4,5-trimethylpiperidin-1-yl)quinoline-4-carboxamide], in series [1] (setting [7]), the microsomal CLint turned out to be 53 µL/min/mg. The IC50 in series [2] worked out at 360 nM. In addition, in series [3], the “hFAP Binding assay k(off)” value stood at 0.00012 s⁻¹; the “hFAP Binding assay k(on)” value stood at 740000 M⁻¹ s⁻¹; the affinity, expressed as Kd, was 0.16 nM. In addition, the IC50 in series [4] was found to be 0.24 nM. The compound also yielded a solubility in series [5] (setting [8]) of 940 µM (≈ 440 µg/mL). In addition, the “rHep CLint” value in series [6] is 11 μL/min/1E6.
In turn, `N#C[C@@H]1CSCN1C(=O)CNC(=O)c1ccnc2ccc(N3CC(CCC(F)(F)F)C3)cc12` [Example 142, (R)—N-(2-(4-Cyanothiazolidin-3-yl)-2-oxoethyl)-6-(3-(3,3,3-trifluoropropyl)azetidin-1-yl)quinoline-4-carboxamide] came in with a microsomal CLint in series [1] (setting [7]) of 43 µL/min/mg. For the same compound, the IC50 in series [2] is 530 nM. In series [3], the “hFAP Binding assay k(off)” value came out at 0.000055 s⁻¹, the “hFAP Binding assay k(on)” value was found to be 1800000 M⁻¹ s⁻¹ and the Kd stood at 0.028 nM. In addition, it took 0.088 nM to reach half-maximal inhibition in series [4] (IC50). Moreover, the concentration in solution in series [5] (setting [8]) (solubility) came to 1.8 µM (≈ 0.86 µg/mL). Also, in series [6], the “rHep CLint” value is on record as 6.7 μL/min/1E6.
The compound `N#C[C@@H]1CSCN1C(=O)CNC(=O)c1ccnc2ccc(N3CC4(CC4)C3)cc12` [Example 164, (R)—N-(2-(4-Cyanothiazolidin-3-yl)-2-oxoethyl)-6-(5-azaspiro[2.3]hexan-5-yl)quinoline-4-carboxamide] displayed a microsomal CLint in series [1] of 22 µL/min/mg. Besides, the IC50 in series [2] is 240 nM. Further, in series [3], the “hFAP Binding assay k(off)” value stood at 0.000036 s⁻¹, the “hFAP Binding assay k(on)” value came to 1400000 M⁻¹ s⁻¹ and the Kd worked out at 0.027 nM. The compound also came in with an IC50 in series [4] of 0.081 nM. The compound also displayed a solubility in series [5] of 64 µM (≈ 26.1 µg/mL). Also, the “rHep CLint” value in series [6] was 8.1 μL/min/1E6.
In series [1] (setting [7]), `N#C[C@@H]1CSCN1C(=O)CNC(=O)c1ccnc2cc(Cl)c(N3CCOCC3)cc12` [Example 179, (R)-7-Chloro-N-(2-(4-cyanothiazolidin-3-yl)-2-oxoethyl)-6-morpholino-quinoline-4-carboxamide] came in with a microsomal CLint of 140 µL/min/mg. In series [2], the IC50 was 470 nM. Also, in series [3], the “hFAP Binding assay k(off)” value is 0.00016 s⁻¹, the “hFAP Binding assay k(on)” value is 3200000 M⁻¹ s⁻¹ and binding was put at a Kd of 0.052 nM. This compound also had an IC50 in series [4] of 0.048 nM. The concentration in solution in series [5] (setting [8]) (solubility) was 110 µM (≈ 49.1 µg/mL). Moreover, the “rHep CLint” value in series [6] worked out at 47 μL/min/1E6.
For `N#C[C@@H]1CSCN1C(=O)CNC(=O)c1ccnc2ccc(N3C[C@H]4CCC[C@@H](C3)O4)cc12` [Example 194, 6-((1R,5S)-9-Oxa-3-azabicyclo[3.3.1]nonan-3-yl)-N-(2-((R)-4-cyano-thiazolidin-3-yl)-2-oxoethyl)quinoline-4-carboxamide], the microsomal CLint in series [1] (setting [7]) is 78 µL/min/mg. Also, in series [2], the IC50 was 460 nM. In series [3], the “hFAP Binding assay k(off)” value was found to be 0.000068 s⁻¹, the “hFAP Binding assay k(on)” value came to 1100000 M⁻¹ s⁻¹ and the Kd was 0.066 nM. In addition, in series [4], it took 0.046 nM to reach half-maximal inhibition (IC50). In series [5] (setting [8]), this compound displayed a solubility of 480 µM (≈ 217 µg/mL). Also, in series [6], the “rHep CLint” value is 44 μL/min/1E6.
In series [1], `N#C[C@@H]1CSCN1C(=O)CNC(=O)c1ccnc2ccc(N3CC4(CCS4)C3)cc12` [Example 222, (R)—N-(2-(4-Cyanothiazolidin-3-yl)-2-oxoethyl)-6-(1-thia-6-azaspiro[3.3]heptan-6-yl)quinoline-4-carboxamide] had a microsomal CLint of 40 µL/min/mg. Moreover, the IC50 is 490 nM in series [2] and 0.087 nM in series [4]. For the same compound, the Kd in series [3] came out at 0.022 nM. Besides, the solubility in series [5] stood at 120 µM (≈ 52.7 µg/mL). Besides, in series [6], the “rHep CLint” value turned out to be 4.2 μL/min/1E6.
In series [1] (setting [7]), `CC1(CC(F)(F)F)CN(c2ccc3nccc(C(=O)NCC(=O)N4CSC[C@H]4C#N)c3c2)C1` [Example 131, (R)—N-(2-(4-Cyanothiazolidin-3-yl)-2-oxoethyl)-6-(3-methyl-3-(2,2,2-trifluoroethyl)azetidin-1-yl)quinoline-4-carboxamide] yielded a microsomal CLint of 97 µL/min/mg. Further, in series [2], the IC50 came to 360 nM. In series [3], the “hFAP Binding assay k(off)” value amounted to 0.00014 s⁻¹, the “hFAP Binding assay k(on)” value is 1800000 M⁻¹ s⁻¹ and the Kd is 0.033 nM. In series [4], this compound came in with a 50% inhibitory concentration (IC50) of 0.12 nM. Besides, the solubility in series [5] (setting [8]) turned out to be 140 µM (≈ 66.9 µg/mL). The “rHep CLint” value in series [6] is listed as 16 μL/min/1E6.
In turn, `N#C[C@@H]1CSCN1C(=O)CNC(=O)c1ccnc2ccc(N3CC(COC(F)(F)F)C3)cc12` [Example 130, (R)—N-(2-(4-Cyanothiazolidin-3-yl)-2-oxoethyl)-6-(3-((trifluoromethoxy)-methyl)azetidin-1-yl)quinoline-4-carboxamide] had a microsomal CLint in series [1] (liver microsomes, HLM CLint, n = 1 or average of n = 2-3) of 54 µL/min/mg. The IC50 in series [2] is 540 nM; in series [4], 0.19 nM. The Kd in series [3] stood at 0.18 nM. The compound further had a solubility in series [5] (setting [8]) of 16 µM (≈ 7.67 µg/mL). For the same compound, in series [6], the “rHep CLint” value was determined as 11 μL/min/1E6.
In series [1] (setting [7]), `Cc1cc(C(F)(F)F)nn1-c1ccc2nccc(C(=O)NCC(=O)N3CSC[C@H]3C#N)c2c1` [Example 116, (R)—N-(2-(4-Cyanothiazolidin-3-yl)-2-oxoethyl)-6-(5-methyl-3-(trifluoromethyl)-1H-pyrazol-1-yl)quinoline-4-carboxamide] showed a microsomal CLint of 98 µL/min/mg. Besides, the IC50 in series [2] stood at 230 nM. Also, in series [3], the “hFAP Binding assay k(off)” value stood at 0.0012 s⁻¹, the “hFAP Binding assay k(on)” value stood at 7900000 M⁻¹ s⁻¹ and the dissociation constant (Kd) was 0.15 nM. For the same compound, the IC50 in series [4] amounted to 0.16 nM. The same compound yielded a solubility in series [5] (setting [8]) of 490 µM (≈ 232 µg/mL). Further, in series [6], the “rHep CLint” value was 15 μL/min/1E6.
Regarding `N#C[C@@H]1CSCN1C(=O)CNC(=O)c1ccnc2ccc(N3CCC[C@@H]3C3CC3)cc12` (single isomer, unassigned) [Example 199, N-(2-((R)-4-Cyanothiazolidin-3-yl)-2-oxoethyl)-6-((R*)-2-cyclopropyl-pyrrolidin-1-yl)quinoline-4-carboxamide], the microsomal CLint in series [1] (setting [7]) was over 300 µL/min/mg. In series [2], the IC50 came out at 170 nM. Moreover, in series [3], the “hFAP Binding assay k(off)” value turned out to be 0.00026 s⁻¹, the “hFAP Binding assay k(on)” value stood at 2300000 M⁻¹ s⁻¹ and binding was characterised by a dissociation constant (Kd) of 0.1 nM. The same compound registered an IC50 in series [4] of 0.3 nM. In series [5] (setting [8]), the solubility amounted to 85 µM (≈ 37 µg/mL). Also, in series [6], the “rHep CLint” value was 250 μL/min/1E6.

A word on the microsomal CLint: it is a measure of how fast metabolising enzymes remove a compound, apart from limits set by blood flow. One may read the IC50 as the concentration that gives 50% inhibition. For orientation: Kd means the equilibrium constant for the complex coming apart. A high value points to weaker binding. As usually defined, the solubility is how much of the substance goes into solution per volume. A lower solubility goes with little dissolved substance.
